From patent publication US20230181520A1, “USE OF HYDROPEROXY ALCOHOLS AND THE DERIVATIVES THEREOF AS ANTIMICROBIAL AGENTS” (DEMETA, priority 2019, published 2023)

Experiments:
Type in all cases: cell-based
[1] = system: Pseudomonas aeruginosa; assay: Surface antibacterial test, CFU count on support; conditions: P. aeruginosa; 24 h of contact at ambient temperature; sample solution 10 000 ppm in DMSO dried on inert support
Experimental: The tests were carried out at the surface: a solution of sample at 10 000 ppm in DMSO for a sample of HPA at 72% purity (i.e. […] of active material) was dried on an inert support. Once the solution had dried, a volume of inoculum of each bacterial strain was placed on the support in contact with the sample for 0 and 24 h at ambient temperature. In order to verify the nontoxicity of the DMSO, a pure solution of DMSO was dried on the support under the same conditions as the samples. A nontreated support (noted support control in FIG. 1) was also inoculated, in order to verify the stability of the strains under the conditions of the test. In order to quantify the contamination at each measurement time, a count was performed by spreading out, at the surface or in the mass, of decimal dilutions of the sample on TSA agar or Columbia agar (for C. acnes). The results were expressed in “colony-forming units” (CFUs) on the support. The Bacterial Strains Targeted are: Gram−: Pseudomonas aeruginosa

[2] = system: Enterococcus hirae; assay: Surface antibacterial test, CFU count on support; conditions: E. hirae; 24 h of contact at ambient temperature; sample solution 10 000 ppm in DMSO dried on inert support
Experimental: (§1) The tests were carried out at the surface: a solution of sample at 10 000 ppm in DMSO for a sample of HPA at 72% purity (i.e. […] of active material) was dried on an inert support. Once the solution had dried, a volume of inoculum of each bacterial strain was placed on the support in contact with the sample for 0 and 24 h at ambient temperature. In order to verify the nontoxicity of the DMSO, a pure solution of DMSO was dried on the support under the same conditions as the samples. A nontreated support (noted support control in FIG. 1) was also inoculated, in order to verify the stability of the strains under the conditions of the test. In order to quantify the contamination at each measurement time, a count was performed by spreading out, at the surface or in the mass, of decimal dilutions of the sample on TSA agar or Columbia agar (for C. acnes). The results were expressed in “colony-forming units” (CFUs) on the support. The Bacterial Strains Targeted are: Gram+: Cutibacterium acnes, Enterococcus hirae, Staphylococcus aureus

[3] = system: Staphylococcus aureus; assay: Surface antibacterial test, CFU count on support; conditions: S. aureus; 24 h of contact at ambient temperature; sample solution 10 000 ppm in DMSO dried on inert support
Experimental: as §1

[4] = system: Cutibacterium acnes; assay: Surface antibacterial test, CFU count on support (Columbia agar); conditions: C. acnes; 24 h of contact at ambient temperature; sample solution 10 000 ppm in DMSO dried on inert support
Experimental: as §1

## 9(10)-hydroperoxy-10(9)-hydroxystearic acid [hydroperoxy alcohol of oleic acid]
[1]
  logarithmic reduction in the population relative to t=0: approximately 4 log 10
[2]
  logarithmic reduction of the population relative to t=0: approximately 5 log 10
[3]
  logarithmic reduction of the population relative to t=0: approximately 5 log 10
[4]
  logarithmic reduction of the population relative to t=0: approximately 6 log 10
